Consider one compound from patent publication US7994127B2, “Treatment of rett syndrome” (Massachusetts Institute of Technology, priority 2007, dated 2011).

One experiment relates to tPA. As to the kind of experiment: tPA expression (mRNA, tPA staining) during monocular deprivation. It is filed as in vivo, mouse. The conditions noted are these: mice subjected to MD and treated. On the procedure: A: Effects of (1-3)IGF-1 (GPE) treatment on the expression levels of BDNF at mRNA level. […] (1-3)IGF-1 treatment is able to increase expression though not to control levels. The RNA levels were obtained with the micro-array analysis described in Tropea et al., 2006. B: Double staining for NeuN (green) and proBDNF (red) antibody. […] Anti-pro BDNF and anti-NeuN were obtained from CHEMICON and used at a concentration of 1:500. The solutions and time of incubations are the following: preincubation in 5% BSA, 0.1% triton, 10% serum, PBS. Incubation with the primary antibodies was carried out at 4 degrees for 3 days in the following solution: 2% BSA, 5% serum, 0.1% triton, PBS. After washings in PBS secondary biotinylated (for pro-BDNF) or Alexa conjugated (for NeuN) antibodies (1:200) were incubated for 2 hours in the same solution of the primary antibodies. The pro-BDNF labeling was detected by adding extravidine tritc (Sigma—1:300). C: Effects of (1-3)IGF-1 (GPE) treatment on the mRNA expression levels of tPA. […] Anti-tPA was purchased from Oxford Biomedical Research and used at a concentration of 1:500. The conditions for incubation were the following: free floating sections were pre-incubated in blocking solution: 10% serum, 0.3% triton, PBS and then left overnight in the primary antibody mix: 1% serum, 0.3% triton, PBS, anti-tPA 1:500, anti Neu-N 1:500. […]

The test system of a further experiment is synaptic transmission. Put plainly: Synaptic transmission during direct application of the molecules. The conditions noted are these: direct application of the molecule. The class given is cell-based, mouse. An excerpt: rhIGF1 produced a similar improvement as (1-3)IGF-1 in all maturational signatures measured, including (A) synaptic transmission levels, and (B) circuit stability (by preventing ocular dominance plasticity) in P60 MeCP2 KO mice.
The above data focused on the (1-3)IGF-1 fragment of IGF1 to promote IGF1 signaling. We also have tested the effect of the full-length IGF1 peptide already approved for pediatric administration in human patients (for short stature indications). We have verified a correspondence in the effects of (1-3)IGF-1 and recombinant human IGF1 (rhIGF1).

The subject of experiment [1] is layer 5 pyramidal neurons of MeCP2−/y mice. As to the kind of experiment: Intracellular whole-cell recordings of spontaneous EPSCs in acute cortical slices. The class given is ex vivo, mouse. Here is the method:
(§1) (1-3)IGF-1 treatment: For the survival measurements, the nocturnal activity analysis and the immunoblot analysis, (1-3) IGF-1 (Bachem Biosciences # H22468) was administered daily via intra-peritoneal injections (0.01 mg/g body weight, vehicle=saline, 0.01% BSA). The treatment was started at P15 and maintained throughout the course of the experiments. For intracellular physiology experiments, the mice were injected daily (0.01 mg/g body weight, vehicle=saline, 0.01% BSA) for 2 weeks, from P15 to P28-P32 when they were used for acute slice preparation. For optical imaging experiments, mice were injected with (1-3) IGF-1 (0.02 mg/g body weight, vehicle=saline, 0.01% BSA) daily from the day of the lid suture to the day of imaging. Slice physiology preparation: Coronal sections (300 μm thick) at or near sensorimotor cortex were cut in <4° C. ACSF using a Vibratome. Slices were incubated at 37° C. for 20 minutes after slicing, and at room temperature for the remainder of the experiment. Slices were transferred to a Warner chamber and recordings were taken from visually identified pyramidal neurons located in layer 5. Artificial cerebral spinal fluid (ACSF) contained 126 mM NaCl, 25 mM NaHCO3, 1 mM NaHPO4, 3 mM KCl, 2 mM MgSO4, 2 mM CaCl2, and 14 mM dextrose, was adjusted to 315-320 mOsm and 7.4 pH, and was bubbled with 95% O2/5% CO2. The intracellular pipette solution contained 100 mM potassium gluconate, 20 mM KCl, 10 mM HEPES, 4 mM MgATP, 0.3 mM NaGTP, and 10 mM Na-phosphocreatine. […] Cells were visualized with an Achroplan 40× water-immersion lens with infrared-DIC optics (Zeiss) and detected with an infrared camera (Hamamatsu) projecting to a video monitor. […] Then in current clamp ˜10 pulses (500 ms, 40-140 pA at 10 pA increments), were applied to quantify evoked firing rates and cellular excitability. […] Analysis was performed using a custom software package written in Matlab, with all events detected according to automated thresholds and blindly verified for each event individually by the experimenter. […]

The subject of a further experiment is MeCP2 KO mice. Put plainly: Nocturnal activity measurements (infrared beam interruptions). It is filed as in vivo, mouse. The conditions noted are these: for nocturnal locomotor activity, beam interruptions over 10 hours (FIG. 4B): 6 to 17 weeks of age. On the procedure: as §1

Molecules are shown by their SMILES. “Also recorded” adds a separate entry of the source.

Regarding `NCC(=O)N1CCC[C@H]1C(=O)N[C@@H](CCC(=O)O)C(=O)O` [(1-3)IGF-1, glycyl-L-prolyl-L-glutamic acid], in the experiment on tPA, the “tPA protein expression level, tPA staining (FIG. 8D)” value is reported as “strongly increased”. For the same compound, in the experiment with tPA (vs control and deprived animals), the “tPA mRNA expression (FIG. 8C)” value was “significantly up-regulated tPA mRNA expression relative to both control and deprived animals”. For the same compound, in the experiment on synaptic transmission, the “synaptic activity / synaptic transmission levels (FIG. 9A)” value is recorded as “striking enhancements of synaptic activity”. In experiment [1] (KO-T compared to KO, treated two weeks, mice 28-32 days old), the “mean EPSC amplitude per neuron, across all cells (FIG. 1C)” value is on record as “modestly but significantly increased”. In experiment [1] (MeCP2−/y mice, 0.01 mg/g body weight IP daily for 2 weeks, P15 to P28-P32, vs vehicle-treated MeCP2−/y), the “spontaneous EPSC amplitude (FIG. 1B)” value is “significantly larger in amplitude”. Besides, the “distributions of intervals between EPSC events (EPSC frequency, FIG. 1D)” value in experiment [1] (between WT, and KO and KO-T groups) was “subtly but significantly modified”. Also, the “nocturnal locomotor activity, beam interruptions over 10 hours (FIG. 4B)” value is “elevated these levels; also recorded: more active than vehicle-treated KO animals (KO) but not as active as WT” in the experiment on MeCP2 KO mice (MeCP2 KO mice, 0.01 mg/g IP daily from P15, vs vehicle KO) and “failing to increase activity in wild-type animals; also recorded: not significantly more active than WT” in the experiment with MeCP2 KO mice (wild-type mice treated (WT-T) vs WT). Besides, in the experiment with MeCP2 KO mice (young mice, 4 to 5 weeks of age), the “nocturnal locomotor activity, beam interruptions over 10 hours (FIG. 6)” value is “treatment did not change activity levels”.
